This assay has as its target T1, WT BTK protein (Homo sapiens, UniProt Q06187).
T1 construct: measured for intracellular BTK protein levels by Western blotting; endogenous in cells; host or cells: TMD-8 or RAMOS cells
As to the kind of experiment: BTK protein degradation assay (Western blotting), WT BTK. It counts as cell-based. The following applies: concentration range accounting for 50% degradation of WT BTK protein, TMD-8 or RAMOS cells, 24 hours. Put shortly:
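BTK levels were read by Western blotting (GAPDH and β-actin normalisers) in RIPA lysates of TMD-8 cells exposed to compounds for 24 h at 1×10^6 cells/mL. Results scored in ranges of the concentration producing 50% loss of WT BTK.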
(A western blot detects proteins with antibodies after separation by electrophoresis.)

T1 sequence (Q06187 whole entry): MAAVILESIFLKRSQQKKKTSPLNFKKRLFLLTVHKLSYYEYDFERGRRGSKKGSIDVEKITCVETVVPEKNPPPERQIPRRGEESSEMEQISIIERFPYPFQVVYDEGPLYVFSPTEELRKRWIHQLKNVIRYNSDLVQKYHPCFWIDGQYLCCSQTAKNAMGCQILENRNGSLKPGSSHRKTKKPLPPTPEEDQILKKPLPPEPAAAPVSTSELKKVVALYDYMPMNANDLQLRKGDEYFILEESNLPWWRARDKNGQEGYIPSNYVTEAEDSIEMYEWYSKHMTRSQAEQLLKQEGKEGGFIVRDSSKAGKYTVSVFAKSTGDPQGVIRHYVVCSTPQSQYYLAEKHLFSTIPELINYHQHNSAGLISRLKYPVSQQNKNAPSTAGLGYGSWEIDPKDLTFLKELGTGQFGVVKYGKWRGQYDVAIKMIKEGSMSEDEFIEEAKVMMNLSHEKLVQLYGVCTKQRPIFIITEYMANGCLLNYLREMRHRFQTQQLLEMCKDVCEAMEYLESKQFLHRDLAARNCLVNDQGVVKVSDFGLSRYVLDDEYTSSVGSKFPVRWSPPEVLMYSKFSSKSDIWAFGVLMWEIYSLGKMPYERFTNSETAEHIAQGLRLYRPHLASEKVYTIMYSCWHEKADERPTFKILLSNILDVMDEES

As to `Cc1cccc(C)c1Nc1nn(C)c2nc(Nc3ccc(N4CCN(CC5CN(c6ccc7c(c6)C(=O)N(C6CCC(=O)NC6=O)C7=O)C5)CC4)cc3)ncc12` (stereo not drawn) [Compound 181, 5-(3-((4-(4-((3-((2,6-Dimethylphenyl)amino)-1-methyl-1H-pyrazolo[3,4-d]pyrimidin-6-yl)amino)phenyl)piperazin-1-yl)methyl)azetidin-1-yl)-2-(2,6-dioxopiperidin-3-yl)isoindoline-1,3-dione], the DC50 was in the range of 0.1 to 10 nM. The same measure for `Cc1cccc(C)c1Nc1nn(C)c2nc(Nc3ccc(C4CN(CC5CN(c6ccc7c(c6)C(=O)N(C6CCC(=O)NC6=O)C7=O)C5)C4)cc3)ncc12` (stereo not drawn) [Compound 182, 5-(3-((3-(4-((3-((2,6-Dimethylphenyl)amino)-1-methyl-1H-pyrazolo[3,4-d]pyrimidin-6-yl)amino)phenyl)azetidin-1-yl)methyl)azetidin-1-yl)-2-(2,6-dioxopiperidin-3-yl)isoindoline-1,3-dione]: 0.1 to 10 nM.

For `Cc1cccc(C)c1Nc1nn(C)c2nc(Nc3ccc(N4CCN(CC5CN(c6ccc7c(c6)C(=O)N(C6CCC(=O)NC6=O)C7=O)C5)C[C@@H]4C)cc3)ncc12` (stereo partly drawn) [Compound 183, 5-(3-(((S)-4-(4-((3-((2,6-Dimethylphenyl)amino)-1-methyl-1H-pyrazolo[3,4-d]pyrimidin-6-yl)amino)phenyl)-3-methylpiperazin-1-yl)methyl)azetidin-1-yl)-2-(2,6-dioxopiperidin-3-yl)isoindoline-1,3-dione], the DC50 lay in the range of 0.1 to 10 nM. Regarding `Cc1cccc(C)c1Nc1nn(C)c2nc(Nc3ccc(N4CCN(CC5CN(c6ccc7c(c6)C(=O)N(C6CCC(=O)NC6=O)C7=O)C5)C[C@H]4C)cc3)ncc12` (stereo partly drawn) [Compound 184, 5-(3-(((R)-4-(4-((3-((2,6-Dimethylphenyl)amino)-1-methyl-1H-pyrazolo[3,4-d]pyrimidin-6-yl)amino)phenyl)-3-methylpiperazin-1-yl)methyl)azetidin-1-yl)-2-(2,6-dioxopiperidin-3-yl)isoindoline-1,3-dione], the DC50 lay within 0.1 to 10 nM. The same measure for `Cc1cccc(C)c1Nc1nn(C)c2nc(Nc3ccc(N4CCN(CC5CN(c6ccc7c(c6)C(=O)N(C6CCC(=O)NC6=O)C7=O)C5)[C@@H](C)C4)cc3)ncc12` (stereo partly drawn) [Compound 185, 5-(3-(((S)-4-(4-((3-((2,6-Dimethylphenyl)amino)-1-methyl-1H-pyrazolo[3,4-d]pyrimidin-6-yl)amino)phenyl)-2-methylpiperazin-1-yl)methyl)azetidin-1-yl)-2-(2,6-dioxopiperidin-3-yl)isoindoline-1,3-dione]: 0.1 to 10 nM; for `Cc1cccc(C)c1Nc1nn(C)c2nc(Nc3ccc(N4CCN(CC5CN(c6ccc7c(c6)C(=O)N(C6CCC(=O)NC6=O)C7=O)C5)[C@H](C)C4)cc3)ncc12` (stereo partly drawn) [Compound 186, 5-(3-(((R)-4-(4-((3-((2,6-Dimethylphenyl)amino)-1-methyl-1H-pyrazolo[3,4-d]pyrimidin-6-yl)amino)phenyl)-2-methylpiperazin-1-yl)methyl)azetidin-1-yl)-2-(2,6-dioxopiperidin-3-yl)isoindoline-1,3-dione]: 0.1 to 10 nM. To `Cc1cccc(C)c1Nc1nn(C)c2nc(Nc3ccc(N4CCN(CC5CN(c6ccc7c(n6)CN(C6CCC(=O)NC6=O)C7=O)C5)CC4)cc3)ncc12` (stereo not drawn) [Compound 187, 3-(2-(3-((4-(4-((3-((2,6-Dimethylphenyl)amino)-1-methyl-1H-pyrazolo[3,4-d]pyrimidin-6-yl)amino)phenyl)piperazin-1-yl)methyl)azetidin-1-yl)-5-oxo-5,7-dihydro-6H-pyrrolo[3,4-b]pyridin-6-yl)piperidin-2,6-one] belongs 0.1 to 10 nM. To `Cc1cccc(C)c1Nc1nn(C)c2nc(Nc3ccc(N4CCN(CC5CCN(c6ccc7c(n6)C(=O)N(C6CCC(=O)NC6=O)C7=O)CC5)CC4)cc3)ncc12` (stereo not drawn) [Compound 188, 3-(2-(4-((4-(4-((3-((2,6-Dimethylphenyl)amino)-1-methyl-1H-pyrazolo[3,4-d]pyrimidin-6-yl)amino)phenyl)piperazin-1-yl)methyl)piperidin-1-yl)-5-oxo-5,7-dihydro-6H-pyrrolo[3,4-b]pyridin-6-yl)piperidin-2,6-one] belongs 0.1 to 10 nM; to `Cc1cccc(C)c1Nc1nn(C)c2nc(Nc3ccc4c(c3)CN(C(=O)Cc3cccc(NC5=CC(=O)N(C6CCC(=O)NC6=O)C5=O)c3)CC4)ncc12` (stereo not drawn) [Compound 192, 3-(3-((3-(2-(7-((3-((2,6-Dimethylphenyl)amino)-1-methyl-1H-pyrazolo[3,4-d]pyrimidin-6-yl)amino)-3,4-dihydroisoquinolin-2 (1H)-yl)-2-oxoethyl)phenyl)amino)-2,5-dioxo-2,5-dihydro-1H-pyrrol-1-yl)piperidin-2,6-one], 10 to 1000 nM; to `Cc1cccc(C)c1Nc1nn(C)c2nc(Nc3ccc4c(c3)CN(CC3CCN(C(=O)Cc5cccc(NC6=CC(=O)N(C7CCC(=O)NC7=O)C6=O)c5)CC3)CC4)ncc12` (stereo not drawn) [Compound 193, 3-(3-((3-(2-(4-((7-((3-((2,6-Dimethylphenyl)amino)-1-methyl-1H-pyrazolo[3,4-d]pyrimidin-6-yl)amino)-3,4-dihydroisoquinolin-2 (1H)-yl)methyl)piperidin-1-yl)-2-oxoethyl)phenyl)amino)-2,5-dioxo-2,5-dihydro-1H-pyrrol-1-yl)piperidin-2,6-one], 0.1 to 10 nM. On to `Cc1cccc(C)c1Nc1nn(C)c2nc(Nc3ccc4c(c3)CN(C(=O)COc3ccc5c(c3)C(=O)N(C3CCC(=O)NC3=O)C5=O)CC4)ncc12` (stereo not drawn) [Compound 194, 5-(2-(7-((3-((2,6-Dimethylphenyl)amino)-1-methyl-1H-pyrazolo[3,4-d]pyrimidin-6-yl)amino)-3,4-dihydroisoquinolin-2 (1H)-yl)-2-oxoethoxy)-2-(2,6-dioxopiperidin-3-yl)isoindoline-1,3-dione], for which the DC50 was 10 to 1000 nM. The same measure for `Cc1cccc(Br)c1Nc1nn(C)c2nc(Nc3ccc4c(c3)CN(CC3CCN(c5ccc6c(c5)C(=O)N(C5CCC(=O)NC5=O)C6=O)CC3)CC4)ncc12` (stereo not drawn) [Compound 195, 5-(4-((7-((3-((2-Bromo-6-methylphenyl)amino)-1-methyl-1H-pyrazolo[3,4-d]pyrimidin-6-yl)amino)-3,4-dihydroisoquinolin-2 (1H)-yl)methyl)piperidin-1-yl)-2-(2,6-dioxopiperidin-3-yl)isoindoline-1,3-dione]: 0.1 to 10 nM. The same measure for `Cc1cccc(C)c1Nc1nn(C)c2nc(Nc3ccc4c(c3)CN(C(=O)C3(NCC5CCN(c6ccc7c(c6)C(=O)N(C6CCC(=O)NC6=O)C7=O)CC5)CC3)CC4)ncc12` (stereo not drawn) [Compound 199, 5-(4-(((1-(7-((3-((2,6-Dimethylphenyl)amino)-1-methyl-1H-pyrazolo[3,4-d]pyrimidin-6-yl)amino)-1,2,3,4-tetrahydroisoquinoline-2-carbonyl)cyclopropyl)amino)methyl)piperidin-1-yl)-2-(2,6-dioxopiperidin-3-yl)isoindoline-1,3-dione]: 10 to 1000 nM; for `Cc1cccc(C)c1Nc1nn(C)c2nc(Nc3ccc4c(c3)CN(CC3CCN(C5=CC(=O)N(C6CCC(=O)NC6=O)C5=O)CC3)CC4)ncc12` (stereo not drawn) [Compound 201, 3-(3-(4-((7-((3-((2,6-dimethylphenyl)amino)-1-methyl-1H-pyrazolo[3,4-d]pyrimidin-6-yl)amino)-3,4-dihydroisoquinolin-2 (1H)-yl)methyl)piperidin-1-yl)-2,5-dioxo-2,5-dihydro-1H-pyrrol-1-yl)piperidin-2,6-one]: 0.1 to 10 nM; for `Cc1cccc(C)c1Nc1nn(C)c2nc(Nc3ccc4c(c3)CN(CC3(NC(=O)C5CCN(c6ccc7c(c6)C(=O)N(C6CCC(=O)NC6=O)C7=O)CC5)CC3)CC4)ncc12` (stereo not drawn) [Compound 204, N-(1-((7-((3-((2,6-dimethylphenyl)amino)-1-methyl-1H-pyrazolo[3,4-d]pyrimidin-6-yl)amino)-3,4-dihydroisoquinolin-2 (1H)-yl)methyl)cyclopropyl)-1-(2-(2,6-dioxopiperidin-3-yl)-1,3-dioxoisoindolin-5-yl)piperidine-4-carboxamide]: 0.1 to 10 nM. As to `Cc1cccc(C)c1Nc1nn(C)c2nc(Nc3ccc4c(c3)CN(CC3(NC(=O)COc5ccc6c(c5)C(=O)N(C5CCC(=O)NC5=O)C6=O)CC3)CC4)ncc12` (stereo not drawn) [Compound 205, N-(1-((7-((3-((2,6-dimethylphenyl)amino)-1-methyl-1H-pyrazolo[3,4-d]pyrimidin-6-yl)amino)-3,4-dihydroisoquinolin-2 (1H)-yl)methyl)cyclopropyl)-2-((2-(2,6-dioxopiperidin-3-yl)-1,3-dioxoisoindolin-5-yl)oxy)acetamide], the DC50 fell in the range of 10 to 1000 nM. The same measure for `Cc1cccc(C)c1Nc1nn(C)c2nc(Nc3ccc4c(c3)CN(CC3CCN(c5cc6c(cc5F)C(=O)N(C5CCC(=O)NC5=O)C6=O)CC3)CC4)ncc12` (stereo not drawn) [Compound 208, 5-(4-((7-((3-((2,6-Dimethylphenyl)amino)-1-methyl-1H-pyrazolo[3,4-d]pyrimidin-6-yl)amino)-3,4-dihydroisoquinolin-2 (1H)-yl)methyl)piperidin-1-yl)-2-(2,6-dioxopiperidin-3-yl)-6-fluoroisoindoline-1,3-dione]: 0.1 to 10 nM; for `Cc1cccc(C)c1Nc1nn(C)c2nc(Nc3ccc4c(c3)CN(CC3CCN(C(=O)C5CCN(c6cc7c(cc6F)C(=O)N(C6CCC(=O)NC6=O)C7=O)CC5)CC3)CC4)ncc12` (stereo not drawn) [Compound 210, 5-(4-(4-((7-((3-((2,6-Dimethylphenyl)amino)-1-methyl-1H-pyrazolo[3,4-d]pyrimidin-6-yl)amino)-3,4-dihydroisoquinolin-2 (1H)-yl)methyl)piperidine-1-carbonyl)piperidin-1-yl)-2-(2,6-dioxopiperidin-3-yl)-6-fluoroisoindoline-1,3-dione]: 0.1 to 10 nM.

One may read the DC50 as the midpoint of the concentration-degradation curve.

These data come from patent US12161722B2, “Bifunctional heterocyclic compound having BTK degradation function via ubiquitin proteasome pathway, and use thereof” (KOREA RESEARCH INSTITUTE OF CHEMICAL TECHNOLOGY, priority 2021, dated 2024).
